We go through one molecule from patent US20070021451A1, “Method for preventing or treating neurologic damage after spinal cord injury” (HAMAMATSU UNIVERSITY SCHOOL OF MEDICINE, priority 2005, published 2007).

The nature of data set [1]: Physiologic parameters (body weight, rectal temperature, mean arterial blood pressure) in rabbit model of spinal cord ischemia. Format: in vivo, New Zealand White rabbits. How it is done:
(§1) Twenty-six male New Zealand White rabbits weighting 2.2 to 3.0 kg were used in this experiment. Spinal cord ischemia was induced by occluding the abdominal aorta with […] for 20 minutes just distal to the renal arteries. Surgical preparation was conducted according to the method described in the literature, Terada H. et. al., J. Thorac. Cardiovasc. Surg. 2001; 122: 979-85. A 24-gauge venous catheter was placed in the marginal ear vein for drug administration. The rabbits were anesthetized with intravenous sodium pentobarbital (25 mg/kg) and allowed to breathe spontaneously. Lidocaine (0.5%) was administered at the site of the skin incision as local anesthesia. The left common carotid artery was cannulated with a 24-gauge catheter for monitoring the arterial pressure. Core body temperature was continuously monitored with a rectal probe and was maintained at 38.5° C. with the aid of heating lamp. The infrarenal abdominal aorta was exposed through a transperitoneal approach. After systemic heparinization (200 U/kg), spinal cord ischemia was induced by occluding the abdominal aorta with […] for 20 minutes just distal to the renal arteries and just above the aortic bifurcation. Then, the […] released, and the flank was closed. […] The rabbits were assigned randomly to 1 of the 4 groups and subjected to the treatment of (1) above in the following manner. The sham group (n=3) underwent the same operation without aortic occlusion. The control group (n=7) received saline (1 ml) intravenously 15 minutes before aortic occlusion. NS-7 (1 mg/kg) was administered intravenously as a bolus dose 15 minutes before aortic occlusion in group A (n=8) or just after releasing the […] onset of reperfusion) in group B (n=8). All the animals survived the entire observation period. Body weight, rectal temperature, and mean arterial blood pressure values at baseline, 10 minutes after ischemia, and 10 minutes after reperfusion are shown in Table 1. There were no significant differences in the weights of the animals.

Data set [2] has as its system Rabbit Model of Spinal Cord Ischemia. Description: Infarct size of spinal cords by TTC staining. The class given is in vivo, New Zealand White rabbits. The note with it: for Infarct size as a percentage of the area of the whole gray matter: mid lumbar, 48 hours after spinal cord ischemia, control 54.7±19.8%. As to the method: as §1, with “All” for “All the”, “were killed by means of a lethal injection of pentobarbital (200 mg/kg) 48 hours” for “survived the entire observation period. Body weight, rectal temperature, and mean arterial blood pressure values at baseline, 10 minutes”, “operation. […] The area of infarction was calculated with National Institutes of Health Image software. The infarct size was expressed as a percentage” for “ischemia, and 10 minutes after reperfusion are shown in Table 1. There were no significant differences in the weights”, “area of the whole gray matter. […]” for “animals.”

The mark [3] stands for this setting: Group A (NS-7 1 mg/kg i.v. 15 min before aortic occlusion), Baseline.
[4] abbreviates: Group A (NS-7 1 mg/kg i.v. 15 min before aortic occlusion), Ischemia, 10 min.
Setting [5] is: Group A (NS-7 1 mg/kg i.v. 15 min before aortic occlusion), Reperfusion, 10 min.
Setting [6] is: Group B (NS-7 1 mg/kg i.v. at onset of reperfusion), Baseline.
Where [7] appears, read: Group B (NS-7 1 mg/kg i.v. at onset of reperfusion), Ischemia, 10 min.
The mark [8] stands for this setting: Group B (NS-7 1 mg/kg i.v. at onset of reperfusion), Reperfusion, 10 min.

Regarding `Cc1cc(-c2ccc(F)cc2)cc(OCCCCCN2CCCCC2)n1.Cl` [NS-7, 4-(4-Fluorophenyl)-2-methyl-6-(5-piperidinopentyloxy)pyridine hydrochloride], the “MAP (mean arterial blood pressure)” value was 83 ± 5 mmHg in data set [1] (setting [3]); 85 ± 5 mmHg in data set [1] (setting [4]); 78 ± 10 mmHg in data set [1] (setting [5]); 91 ± 6 mmHg in data set [1] (setting [6]); 86 ± 7 mmHg in data set [1] (setting [7]); 81 ± 8 mmHg in data set [1] (setting [8]). For the same molecule, the “Rectal Temp.” value in data set [1] (setting [3]) came to 38.4 ± 0.7 °C; in data set [1] (setting [4]), 38.1 ± 0.4 °C; in data set [1] (setting [5]), 38.1 ± 0.2 °C; in data set [1] (setting [6]) it was 38.5 ± 0.4 °C; in data set [1] (setting [7]) it was 38.4 ± 0.5 °C; in data set [1] (setting [8]), 38.6 ± 0.5 °C. In addition, the results for the “Infarct size as a percentage of the area of the whole gray matter” value in data set [2] (NS-7 1 mg/kg i.v. at the onset of reperfusion (group B)) and in data set [2] (NS-7 1 mg/kg i.v. injected before ischemia (group A)) were 12.1±12.8% and 14.0±14.3%, respectively. Also, the “Gray matter infarction in TTC-stained sections (FIG. 1)” value in data set [2] (NS-7 before ischemia or at the onset of reperfusion, mid lumbar level) is reported as “Minimal gray matter infarction”.
